The experiment addresses T1, ALK (Homo sapiens, UniProt Q9UM73).
T1 construct: purchased Millipore
Put plainly: ALK kinase assay (HTRF). The class given is biochemical. Conditions: apparent Ki from IC50 by Cheng-Prusoff; ALK (Millipore) 3 nM or 4 nM, 50 μM ATP, 1 h at room temperature; read-out: HTRF_ALK Human - Ki.

pKi: −log10 of the molar value.

T1 sequence (Q9UM73 19-1620): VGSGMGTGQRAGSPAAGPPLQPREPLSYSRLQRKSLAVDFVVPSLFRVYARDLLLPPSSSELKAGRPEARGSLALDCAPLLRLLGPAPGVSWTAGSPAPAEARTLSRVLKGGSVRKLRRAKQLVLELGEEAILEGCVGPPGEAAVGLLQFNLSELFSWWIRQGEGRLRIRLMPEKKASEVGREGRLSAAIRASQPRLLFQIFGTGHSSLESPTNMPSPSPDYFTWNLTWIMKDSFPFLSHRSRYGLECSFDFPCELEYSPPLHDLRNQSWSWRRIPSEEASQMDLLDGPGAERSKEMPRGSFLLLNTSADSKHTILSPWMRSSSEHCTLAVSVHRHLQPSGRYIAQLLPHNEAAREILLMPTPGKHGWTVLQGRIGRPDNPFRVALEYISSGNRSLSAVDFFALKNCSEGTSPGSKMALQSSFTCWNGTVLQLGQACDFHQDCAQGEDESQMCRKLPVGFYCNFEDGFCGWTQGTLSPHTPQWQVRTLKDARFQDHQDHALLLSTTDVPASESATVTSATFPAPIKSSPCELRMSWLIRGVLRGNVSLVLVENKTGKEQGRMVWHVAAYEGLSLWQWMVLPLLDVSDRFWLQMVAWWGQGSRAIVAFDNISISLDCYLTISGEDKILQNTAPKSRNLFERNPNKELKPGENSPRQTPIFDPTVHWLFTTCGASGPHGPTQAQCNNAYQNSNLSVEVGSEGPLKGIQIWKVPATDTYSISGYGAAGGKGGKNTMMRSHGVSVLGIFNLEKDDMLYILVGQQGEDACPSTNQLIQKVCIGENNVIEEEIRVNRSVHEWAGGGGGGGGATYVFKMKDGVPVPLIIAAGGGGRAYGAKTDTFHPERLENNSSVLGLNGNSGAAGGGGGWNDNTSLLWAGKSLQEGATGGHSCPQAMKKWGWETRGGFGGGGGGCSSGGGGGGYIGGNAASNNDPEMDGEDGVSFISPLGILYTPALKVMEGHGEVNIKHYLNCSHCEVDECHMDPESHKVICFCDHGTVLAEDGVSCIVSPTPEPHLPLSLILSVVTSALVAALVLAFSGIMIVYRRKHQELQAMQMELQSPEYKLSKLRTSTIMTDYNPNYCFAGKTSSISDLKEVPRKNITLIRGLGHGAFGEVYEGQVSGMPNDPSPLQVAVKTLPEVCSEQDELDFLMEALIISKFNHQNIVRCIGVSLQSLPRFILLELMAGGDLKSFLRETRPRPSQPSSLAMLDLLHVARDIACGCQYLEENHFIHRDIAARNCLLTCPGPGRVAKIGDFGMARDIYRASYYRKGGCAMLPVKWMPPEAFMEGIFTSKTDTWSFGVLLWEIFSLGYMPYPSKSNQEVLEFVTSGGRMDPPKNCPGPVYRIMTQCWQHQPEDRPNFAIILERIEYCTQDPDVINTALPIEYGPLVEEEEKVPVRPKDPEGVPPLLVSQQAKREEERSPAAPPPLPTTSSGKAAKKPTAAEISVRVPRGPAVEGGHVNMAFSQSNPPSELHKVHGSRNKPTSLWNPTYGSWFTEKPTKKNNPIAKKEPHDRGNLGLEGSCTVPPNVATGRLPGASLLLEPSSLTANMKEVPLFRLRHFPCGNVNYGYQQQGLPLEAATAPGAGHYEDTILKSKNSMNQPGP

`COc1cc(N2CCNCC2)ccc1Nc1nc(Cc2c(Cl)cccc2Cl)cc2c1C(=O)NCN2` [Example 1, 7-(2,6-dichlorobenzyl)-5-{[2-methoxy-4-(piperazin-1-yl)phenyl]amino}-2,3-dihydropyrido[4,3-d]pyrimidin-4(1H)-one]: the pKi (as a rule, the negative decadic logarithm of the Ki, by convention in mol/L) was 7.96. Then `COc1cc(N2CCNCC2)ccc1Nc1nc(Cc2c(Cl)cccc2Cl)cc2cnnc(O)c12` [Example 2, 7-(2,6-dichlorobenzyl)-5-{[2-methoxy-4-(piperazin-1-yl)phenyl]amino}pyrido[3,4-d]pyridazin-4-ol], with 8.85; and `COc1cc(N2CCNCC2)ccc1Nc1cc(Cc2c(Cl)cccc2Cl)nc2c1C(=O)NCCN2` [Example 3, 8-(2,6-dichlorobenzyl)-6-{[2-methoxy-4-(piperazin-1-yl)phenyl]amino}-1,2,3,4-tetrahydro-5H-pyrido[2,3-e][1,4]diazepin-5-one], with 6.18; and `O=C1NCCNc2nc(Cc3c(Cl)cccc3Cl)cc(Nc3ccc(N4CCNCC4)cc3)c21` [Example 4, 8-(2,6-dichlorobenzyl)-6-{[4-(piperazin-1-yl)phenyl]amino}-1,2,3,4-tetrahydro-5H-pyrido[2,3-e][1,4]diazepin-5-one], with 6.03. The result for `Oc1nncc2cc(Cc3c(Cl)cccc3Cl)nc(Nc3ccc(N4CCNCC4)cc3)c12` [Example 5, 7-(2,6-dichlorobenzyl)-5-{[4-(piperazin-1-yl)phenyl]amino}pyrido[3,4-d]pyridazin-4-ol] reads 9.00; that for `O=C1NCCNc2cc(Cc3c(Cl)cccc3Cl)nc(Nc3ccc(N4CCNCC4)cc3)c21` [Example 6, 8-(2,6-dichlorobenzyl)-6-{[4-(piperazin-1-yl)phenyl]amino}-1,2,3,4-tetrahydro-5H-pyrido[4,3-e][1,4]diazepin-5-one], 6.22. Then `Cc1cc(Nc2nc(Cc3c(Cl)cccc3Cl)cc3cn[nH]c(=O)c23)ccc1N1CCNCC1` [Example 7, 7-(2,6-dichlorobenzyl)-5-{[3-methyl-4-(piperazin-1-yl)phenyl]amino}pyrido[3,4-d]pyridazin-4(3H)-one], with 9.00; and `COc1cc(N2CCN(C3CCCCC3)CC2)ccc1Nc1nc(Cc2c(Cl)cccc2Cl)cc2cn[nH]c(=O)c12` [Example 8, 5-{[4-(4-cyclohexylpiperazin-1-yl)-2-methoxyphenyl]amino}-7-(2,6-dichlorobenzyl)pyrido[3,4-d]pyridazin-4(3H)-one], with below 6.33.

As for `COc1cc(N2CCN(C(=O)c3ccccc3)CC2)ccc1Nc1nc(Cc2c(Cl)cccc2Cl)cc2cnnc(O)c12` [Example 9, [4-(4-{[7-(2,6-dichlorobenzyl)-4-hydroxypyrido[3,4-d]pyridazin-5-yl]amino}-3-methoxyphenyl)piperazin-1-yl](phenyl)methanone], the pKi was below 6.33. For the compound `COc1cc(N2CCNCC2)ccc1Nc1nc(Nc2c(Cl)cccc2Cl)cc2cnnc(O)c12` [Example 10, 7-[(2,6-dichlorophenyl)amino]-5-{[2-methoxy-4-(piperazin-1-yl)phenyl]amino}pyrido[3,4-d]pyridazin-4-ol], the pKi was 8.70.

As to `COc1cc(N2CCN(S(=O)(=O)C(C)C)CC2)ccc1Nc1nc(Cc2c(Cl)cccc2Cl)cc2cnnc(O)c12` [Example 11, 7-(2,6-dichlorobenzyl)-5-({2-methoxy-4-[4-(propan-2-ylsulfonyl)piperazin-1-yl]phenyl}amino)pyrido[3,4-d]pyridazin-4-ol], the pKi is below 5.33.

In the case of `COc1cc(N2CCN(C(=O)CN(C)C)CC2)ccc1Nc1nc(Cc2c(Cl)cccc2Cl)cc2cnnc(O)c12` [Example 12, 1-[4-(4-{[7-(2,6-dichlorobenzyl)-4-hydroxypyrido[3,4-d]pyridazin-5-yl]amino}-3-methoxyphenyl)piperazin-1-yl]-2-(dimethylamino)ethanone], the pKi was 8.52.

On to `O=c1[nH]ncc2cc(Cc3c(Cl)cccc3Cl)nc(Nc3ccc(N4CCNCC4)c(Cl)c3)c12` [Example 13, 5-{[3-chloro-4-(piperazin-1-yl)phenyl]amino}-7-(2,6-dichlorobenzyl)pyrido[3,4-d]pyridazin-4(3H)-one], for which the negative logarithm of the Ki (pKi) is 9.00. The result for `O=c1[nH]ncc2cc(Cc3c(Cl)cccc3Cl)nc(Nc3ccc(N4CCNCC4)cn3)c12` [Example 14, 7-(2,6-dichlorobenzyl)-5-{[5-(piperazin-1-yl)pyridin-2-yl]amino}pyrido[3,4-d]pyridazin-4(3H)-one] reads 7.89; that for `COc1cc(N2CCN(C3CCN(C)CC3)CC2)ccc1Nc1nc(Cc2c(Cl)cccc2Cl)cc2cn[nH]c(=O)c12` [Example 15, 7-(2,6-dichlorobenzyl)-5-({2-methoxy-4-[4-(1-methylpiperidin-4-yl)piperazin-1-yl]phenyl}amino)pyrido[3,4-d]pyridazin-4(3H)-one], 8.52; that for `COc1cc(N2CCN(CCC(C)C)CC2)ccc1Nc1nc(Cc2c(Cl)cccc2Cl)cc2cn[nH]c(=O)c12` [Example 16, 7-(2,6-dichlorobenzyl)-5-({2-methoxy-4-[4-(3-methylbutyl)piperazin-1-yl]phenyl}amino)pyrido[3,4-d]pyridazin-4(3H)-one], below 5.33.

`COc1cc(CCN2CCCC2)ccc1Nc1nc(Cc2c(Cl)cccc2Cl)cc2cn[nH]c(=O)c12` [Example 17, 7-(2,6-dichlorobenzyl)-5-({2-methoxy-4-[2-(pyrrolidin-1-yl)ethyl]phenyl}amino)pyrido[3,4-d]pyridazin-4(3H)-one]: the pKi was 8.22.

As to `COc1cc(CC(=O)N2CCCC2)ccc1Nc1nc(Cc2c(Cl)cccc2Cl)cc2cn[nH]c(=O)c12` [Example 18, 7-(2,6-dichlorobenzyl)-5-({2-methoxy-4-[2-oxo-2-(pyrrolidin-1-yl)ethyl]phenyl}amino)pyrido[3,4-d]pyridazin-4(3H)-one], the pKi is 5.51. The result for `COc1cc(N2CCN(C(=O)CC(C)C)CC2)ccc1Nc1nc(Cc2c(Cl)cccc2Cl)cc2cn[nH]c(=O)c12` [Example 19, 7-(2,6-dichlorobenzyl)-5-({2-methoxy-4-[4-(3-methylbutanoyl)piperazin-1-yl]phenyl}amino)pyrido[3,4-d]pyridazin-4(3H)-one] reads below 5.33; that for `O=c1[nH]ncc2cc(Cc3c(Cl)cccc3Cl)nc(Nc3cc(F)c(N4CCNCC4)cc3F)c12` [Example 20, 7-(2,6-dichlorobenzyl)-5-{[2,5-difluoro-4-(piperazin-1-yl)phenyl]amino}pyrido[3,4-d]pyridazin-4(3H)-one], 8.52; that for `Cc1cc(N2CCNCC2)cc(C)c1Nc1nc(Cc2c(Cl)cccc2Cl)cc2cnnc(O)c12` [Example 21, 7-(2,6-dichlorobenzyl)-5-{[2,6-dimethyl-4-(piperazin-1-yl)phenyl]amino}pyrido[3,4-d]pyridazin-4-ol], 6.43. Then `COc1cc(N2CCNCC2)ccc1Nc1nc(Nc2ccccc2S(=O)(=O)C(C)C)cc2cn[nH]c(=O)c12` [Example 22, 5-{[2-methoxy-4-(piperazin-1-yl)phenyl]amino}-7-{[2-(propan-2-ylsulfonyl)phenyl]amino}pyrido[3,4-d]pyridazin-4(3H)-one], with 8.70; and `COc1cc(N2CCNCC2)ccc1Nc1nc(NC2=N[C@H](C(C)C)CO2)cc2cnnc(O)c12` [Example 23, 5-{[2-methoxy-4-(piperazin-1-yl)phenyl]amino}-7-{[(4R)-4-(propan-2-yl)-4,5-dihydro-1,3-oxazol-2-yl]amino}pyrido[3,4-d]pyridazin-4-ol], with 7.68; and `COc1cc(N2CCNCC2)ccc1Nc1nc(Nc2ccccc2Cl)cc2cn[nH]c(=O)c12` [Example 24, 7-[(2-chlorophenyl)amino]-5-{[2-methoxy-4-(piperazin-1-yl)phenyl]amino}pyrido[3,4-d]pyridazin-4(3H)-one], with 8.40.

`COc1cc(N2CCNCC2)ccc1Nc1nc(Nc2cc(Cl)ccc2F)cc2cn[nH]c(=O)c12` [Example 25, 7-[(5-chloro-2-fluorophenyl)amino]-5-{[2-methoxy-4-(piperazin-1-yl)phenyl]amino}pyrido[3,4-d]pyridazin-4(3H)-one]: the negative-log Ki (pKi) was 8.22. The result for `COc1cc(N2CCNCC2)ccc1Nc1nc(Nc2cc(F)ccc2Cl)cc2cn[nH]c(=O)c12` [Example 27, 7-[(2-chloro-5-fluorophenyl)amino]-5-{[2-methoxy-4-(piperazin-1-yl)phenyl]amino}pyrido[3,4-d]pyridazin-4(3H)-one] reads 8.52. Then `COc1cc(N2CCNCC2)ccc1Nc1nc(Nc2cc(Cl)ccc2Cl)cc2cn[nH]c(=O)c12` [Example 28, 7-[(2,5-dichlorophenyl)amino]-5-{[2-methoxy-4-(piperazin-1-yl)phenyl]amino}pyrido[3,4-d]pyridazin-4(3H)-one], with 8.40; and `COc1cc(N2CCNCC2)ccc1Nc1nc(Nc2c(F)cccc2Cl)cc2cn[nH]c(=O)c12` [Example 29, 7-[(2-chloro-6-fluorophenyl)amino]-5-{[2-methoxy-4-(piperazin-1-yl)phenyl]amino}pyrido[3,4-d]pyridazin-4(3H)-one], with 9.00. Then `COc1cc(N2CCN(C)CC2)ccc1Nc1nc(Cc2c(Cl)cccc2Cl)cc2cn[nH]c(=O)c12` [Example 30, 7-(2,6-dichlorobenzyl)-5-{[2-methoxy-4-(4-methylpiperazin-1-yl)phenyl]amino}pyrido[3,4-d]pyridazin-4(3H)-one], with 8.52; and `COc1cc(N2CCNCC2)ccc1Nc1nc(Nc2cc(Cl)cc(Cl)c2)cc2cn[nH]c(=O)c12` [Example 31, 7-[(3,5-dichlorophenyl)amino]-5-{[2-methoxy-4-(piperazin-1-yl)phenyl]amino}pyrido[3,4-d]pyridazin-4(3H)-one], with 7.72; and `COc1cc(N2CCNCC2)ccc1Nc1nc(Nc2c(F)cccc2F)cc2cn[nH]c(=O)c12` [Example 32, 7-[(2,6-difluorophenyl)amino]-5-{[2-methoxy-4-(piperazin-1-yl)phenyl]amino}pyrido[3,4-d]pyridazin-4(3H)-one], with 8.70.

For `COc1cc(N2CCNCC2)ccc1Nc1nc(Nc2c(Cl)cncc2Cl)cc2cn[nH]c(=O)c12` [Example 33, 7-[(3,5-dichloropyridin-4-yl)amino]-5-{[2-methoxy-4-(piperazin-1-yl)phenyl]amino}pyrido[3,4-d]pyridazin-4(3H)-one], the pKi is 9.70.

The record behind these values is patent publication US20140155389A1, “BICYCLIC INHIBITORS OF ALK” (ABBVIE INC., priority 2011, published 2014).
